This note sets out measurements from ChEMBL document CHEMBL3046151, “Assessment of antithyroid activity of 2,8-disulfanyl-1,9-dihydro-6H-purin-6-one in vitro and in vivo” (2012).

The structures appear in SMILES notation. Active and inactive are the calls of the source. The calls are words filed in the database; no cut-off is given here.

The subject of experiment [1] is Rattus norvegicus. Briefly: Antithyroid activity in Rattus norvegicus Wistar (rat) assessed as free thyroxin(T4) level in serum at 20 mg/kg, ip for 21 days measured after 21 days by radioimmunoassay (reference value: 33.171 +/- 0.474 pmol/l). Type of experiment: functional. The note with it: route intraperitoneal.
Experiment [2] deals with Rattus norvegicus. Briefly: Antithyroid activity in Rattus norvegicus Wistar (rat) assessed as cylindrical follicles in thyroid gland at 20 mg/kg, ip for 21 days by microscopic analysis. Set-up: dose 20 mg/kg. Type of experiment: functional, organism-based.
The test system of experiment [3] is Rattus norvegicus. Briefly: Antithyroid activity in Rattus norvegicus Wistar (rat) assessed as free triiodothyronine(T3) level in serum at 20 mg/kg, ip for 21 days measured after 21 days by radioimmunoassay (reference value: 8.007 +/- 0.167 pmol/l). Type of experiment: functional. The note with it: route intraperitoneal.
Experiment [4] has as its system Rattus norvegicus. Kind of experiment: Antithyroid activity in Rattus norvegicus Wistar (rat) assessed as thyroid stimulating hormone level in serum at 20 mg/kg, ip for 21 days measured after 21 days by ELISA (reference value: 1.83 +/- 0.307 microi.u/ml). Type of experiment: functional. The note with it: route intraperitoneal. For orientation: In an ELISA, binding on a coated surface is turned into a signal by an enzyme label.

The nature of experiment [5]: Binding affinity to iodine assessed as compound-iodine complex formation by spectrophotometry.
Experiment [6] has as its system Rattus norvegicus. Briefly: Antithyroid activity in Rattus norvegicus Wistar (rat) assessed as little colloid material in epithelium of thyroid gland at 20 mg/kg, ip for 21 days by microscopic analysis. Type of experiment: functional, organism-based. The arrangement: dose 20 mg/kg.

As for `Oc1[nH]c(S)nc2nc(S)nc1-2`, the Activity is recorded as 20.086 pmol/L in the experiment on Rattus norvegicus [1], 4.418 pmol/L in the experiment with Rattus norvegicus [3] and 8.126 uIU/ml with Rattus norvegicus [4]. The result (in the experiment with Rattus norvegicus [2]; in experiment [5]; in the experiment with Rattus norvegicus [6]) was Active.

`Cn1ccnc1S` [METHIMAZOLE]: the Activity with Rattus norvegicus [1] is 25.096 pmol/L; in the experiment on Rattus norvegicus [3], 5.162 pmol/L; in the experiment with Rattus norvegicus [4], 6.014 uIU/ml. In addition, the outcome with Rattus norvegicus [2] and in the experiment on Rattus norvegicus [6] was Active.
